Test results reported in US20260355142A1, “AMORPHOUS OTE[…] COMPOSITIONS AND USES THEREOF AND DOSAGE REGIMENS FOR OTENAPROXESUL” (ANTIBE THERAPEUTICS INC., priority 2022, published 2026).

Columns and labels:
[1] = Phase 1 SAD clinical trial, plasma naproxen (M25) levels; format: in vivo, human; settings: single oral dose of about 1500 mg to 2000 mg
Method: Otenaproxesul (crystalline form) was orally administered at a range of doses to healthy volunteers, both as a single dose, and as a daily (or twice-daily) dose for 14 days. Each cohort consisted of 8 subjects, with 6 receiving otenaproxesul and 2 receiving placebo. A total of 8 cohorts were studied in the single-dose study (25 mg, 75 mg, 150 mg, 300 mg, 500 mg, 1000 mg, 1500 mg and 2000 mg), and 3 cohorts in the multiple-dose study (250 and 750 once daily, and 750 mg bid (e.g., 1500 mg/day) for 14 days). All adverse events were recorded, and blood samples were drawn prior to and for at least 72 h after drug administration for measurement of otenaproxesul-derived naproxen levels. Routine cardiovascular, renal, hepatic and hematological biomarkers were monitored, along with clinical signs. […]
It is noted from the pharmacokinetic curves in FIG. 1 showing naproxen metabolite (M25) plasma levels following single dose crystalline otenaproxesul administrations in healthy subjects from the Phase 1 single ascending dose (SAD) study in Example 1, the time to attain maximal plasma concentration of M25 varies widely between 6 and 48 hours across the dosage spectrum. […] Therefore, while not being bound by theory, a single 2000 mg treatment is predicted to provide pain relief for 3 days and possibly to 5 days based upon measured and projected M25 plasma concentrations. […]

[2] = tested on: liver transaminases; assay: 28-day PK/PD and AME clinical study in healthy older adults, liver transaminase elevations; format: in vivo, human; settings: 100 mg cohort, full drug administration period
Method: The study was designed in part on the observation that across the otenaproxesul treatment groups, treatment-related >3×ULN (“upper limit of normal”) ALT and/or AST transaminase levels were noted (almost exclusively after the 14-day dosing interval) in 9.8% (6/61) of patients in the 150 mg arm, 7.2% (9/125) of patients in the 200 mg arm and 12.9% (17/132) patients in the 250 mg arm, with this issue being substantially biased towards females),
In this clinical trial, 28-day human safety/PK data was generated to complement the 14-day DRF data from Example 2. Biomarker data/dose (e.g., thromboxane B2) were also generated using standard ELISA assay kits.
Otenaproxesul was supplied as 75 mg, 100 mg and 125 mg, brown, film-coated tablets and was in crystalline form. Patients were instructed to take 1 tablet of otenaproxesul in the morning after an overnight fast. Food intake was restricted until at least 30 minutes after the morning dose.
The study enrolled a total of 42 subjects on either a 75 mg or 100 mg dose per day of otenaproxesul, of whom 35 had completed the 28-day drug administration period, with seven subjects having been administered the drug for 21 days before the study was paused. […]

[3] = tested on: thromboxane B2; assay: Phase 2b study, plasma thromboxane B2; format: in vivo, human
Method: Whole blood samples were taken pre-treatment and on Days 1, 4 and 14 for the measurement of thromboxane B2 as an index of cyclo-oxygenase enzyme inhibition. Thromboxane B2 levels were measured using the Thromboxane B2 Elisa Kit from Cayman Chemical, Ann Arbor Michigan. Instructions provided with the Kit were followed.
Blood samples for measurement of thromboxane concentrations were collected at room temperature in 10 mL red top, no additive Vacutainers. Blood samples were taken approximately 4 hours after dosing and divided into 2 aliquots. The first aliquot (1 mL) was prepared for the measurement of otenaproxesul-derived plasma naproxen concentrations. The second aliquot (2 mL) was further divided into 2 polypropylene tubes for the measurement of plasma thromboxane concentrations.

[4] = tested on: PGE2; assay: Pharmacodynamics in Beagle dogs, plasma PGE2; format: in vivo; settings: 15 mg/kg
Method: The pharmacokinetics of five different formulations of otenaproxesul (formerly ATB-346) were evaluated in Beagle dogs. Five groups of dogs (n=3/group) were orally administered their assigned formulations once daily for four days. Blood samples were taken for a full 24-hour PK profile on Day 1 and on Day 4.
Group 1 was administered crystalline otenaproxesul, Group 2 was administered milled crystalline otenaproxesul, Group 3 was administered micro-milled crystalline otenaproxesul, Group 4 was administered exemplary ASD no. 1 (see Example 7A above) and Group 5 was administered exemplary ASD no. 4 (see Example 7A above). Dose administered was 15 mg/kg (human equivalent dose of 525 mg).
Pharmacodynamic assessment of TXB2 and PGE2 plasma concentrations were assessed on: • Day 1, one hour post treatment • Day 1, 12 hours post treatment • Day 4, pre-treatment • Day 4, one hour post treatment • Day 4, 12 hours post treatment.

[5] = H2S release / formulation stability in simulated gastric fluid; settings: SGF, 1 mg/ml, 37° C., 5% CO2
Method: Assay design: 1 mg of exemplary ASD no. 1 and crystalline otenaproxesul were weighed in separate glass vials. SGF was added to prepare a 1 mg/ml solution which was incubated at 37° C. with 5% CO2. 120 μl was removed at 0, 0.5, 1, 2, 3, 4 and 8 hrs and quenched in DPD and FeCl3 solutions. A blank and 10 mM stock was also analyzed. The methylene blue was analyzed using HPLC.
As H2S is volatile in the acidic form the calibration curve was not plotted, however H2S release was compared to T0.

[6] = tested on: liver adverse effects; assay: Clinical study of three crystalline otenaproxesul regimens, liver safety; format: in vivo, human; settings: 1500 mg single; 1500 mg + 100 mg Days 2-5; 2000 mg single
Method: Data were collected over a 312-hour period at protocol-specified intervals. Sampling was most frequent during the first 2 hours post drug administration. Treatment regimens were (i) otenaproxesul single dose 1500 mg (Total 1500 mg); (ii) crystalline otenaproxesul Day 1 single dose 1500 mg plus 100 mg on Days 2-5 (Total 1900 mg) or (iii) crystalline otenaproxesul single dose 2000 mg (Total 2000 mg).

SMILES | duration of plasma naproxen metabolite greater than about 10 μg/mL [1] | subjects with liver transaminase elevations exceeding five times the upper limit of normal [2] | plasma thromboxane B2 levels ([3]; 150 mg daily) | TXB2 levels ([3]; Day 1, 150, 200, 250 mg) | inhibition of TXB2 synthesis ([3]; Day 4, 150, 200, 250 mg) | inhibition of TXB2 synthesis ([3]; Day 14, 150, 200, 250 mg) | PGE2 inhibition ([4]; Day 1 12-hour) | PGE2 inhibition ([4]; Day 4 pre-treatment) | Peak area of methylene blue (H2S release) ([5]; 0 hrs) | Peak area of methylene blue (H2S release) ([5]; 0.5 hrs) | Peak area of methylene blue (H2S release) ([5]; 1 hr) | Peak area of methylene blue (H2S release) ([5]; 2 hrs) | Peak area of methylene blue (H2S release) ([5]; 3 hrs) | Peak area of methylene blue (H2S release) ([5]; 4 hrs) | Peak area of methylene blue (H2S release) ([5]; 8 hrs) | liver adverse effects [6]
COc1ccc2cc([C@H](C)C(=O)Oc3ccc(C(N)=S)cc3)ccc2c1 [otenaproxesul, (S)-4-carbamothioylphenyl 2-(6-methoxynaphthalen-2-yl) propanoate] | over 72 hours | Three | marked reduction in plasma thromboxane B2 levels | significant suppression of thromboxane B2 levels | profound inhibition of thromboxane B2 synthesis | profound inhibition of thromboxane B2 synthesis |  |  |  |  |  |  |  |  |  | 
COc1ccc2cc([C@H](C)C(=O)Oc3ccc(C(N)=S)cc3)ccc2c1 [crystalline otenaproxesul] |  |  |  |  |  |  | not maintained | recovered to a large extent | 1.6 | 2.4 | 2 | 2.3 | 1.8 | 1.9 | 2.4 | No subjects in any of the three treatment arms exhibited any liver adverse effects
